Active and inactive are the calls of the source.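 The calls were made as follows: active = lipid-stain IC50 at or below a set limit, with nuclear-stain toxicity IC50 at least five times higher; inactive = the rest.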

One experiment concerns TAG. Briefly: triacylglycerol accumulation inhibitor potency, dose response, cell-based, panel, Nile Red and DAPI fluorescence, H9c2 (AID 651630).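 Also: cells exposed to compound overnight before fixation and staining.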 The note with it: H9c2 cells, Nile Red TAG fluorescence, oleic acid.
Another experiment concerns DAPI. Described as above. The note with it: H9c2 cells, DAPI nuclear fluorescence (cytotoxicity counter-readout), oleic acid.

Take `CC(C)(C)c1ccc(/C=N/NC(=O)Cc2c[nH]c3ccccc23)cc1`: the results for the IC50 with TAG (mean of runs), in the experiment with TAG (run 1) and in the experiment on TAG (run 2) were 20.5 µM (inactive), 16.5 µM and 24.4 µM, respectively. In addition, the figures for the IC50 cytotoxicity (DAPI nuclear signal decrease) in the experiment with DAPI (mean of runs), in the experiment with DAPI (run 1) and with DAPI (run 2) were > 25 µM (inactive), over 25 µM and over 25 µM, respectively.
`CCN(CC)CCNc1nc2cc(OC)c(OC)cc2c2nc(-c3ccccc3)nn12`: the IC50 in the experiment on TAG (mean of runs) was > 25 µM (inactive); in the experiment on TAG (run 1), over 25 µM; in the experiment with TAG (run 2), over 25 µM. For the same compound, the IC50 cytotoxicity (DAPI nuclear signal decrease) in the experiment with DAPI (mean of runs) was > 25 µM (inactive); in the experiment on DAPI (run 1), over 25 µM; in the experiment on DAPI (run 2), over 25 µM.
As for `COc1ccc(-c2sc3ccc(N4CCOCC4)cc3c2C#CCCO)cc1`, the IC50 in the experiment with TAG (mean of runs) was > 25 µM (inactive); in the experiment on TAG (run 1), over 25 µM; in the experiment with TAG (run 2) it was over 25 µM. Also, the IC50 cytotoxicity (DAPI nuclear signal decrease) is > 25 µM (inactive) in the experiment with DAPI (mean of runs), over 25 µM with DAPI (run 1) and over 25 µM in the experiment with DAPI (run 2).
As to `N#CC1=C(N)Oc2cc(Nc3ccccc3)ccc2C1c1ccncc1` (stereo not drawn), the results for the half-maximal inhibitory concentration (IC50) in the experiment on TAG (run 1) and in the experiment on TAG (run 2) were 19.8 µM and over 25 µM, respectively. The results for the IC50 cytotoxicity (DAPI nuclear signal decrease) in the experiment with DAPI (run 1) and with DAPI (run 2) were 23.2 µM and over 25 µM, respectively.
As for `O=[N+]([O-])c1cccc(S(=O)(=O)N2CN(c3ccc(Br)cc3)c3nc4ccccc4nc32)c1`, the IC50 in the experiment with TAG (mean of runs) is 8.37 µM; with TAG (run 1), 8.4 µM; in the experiment with TAG (run 2) it was 8.34 µM. Moreover, the results for the IC50 cytotoxicity (DAPI nuclear signal decrease) in the experiment on DAPI (mean of runs), in the experiment on DAPI (run 1) and in the experiment on DAPI (run 2) were > 25 µM (inactive), over 25 µM and over 25 µM, respectively.
Turning to `COc1ccc(NC(=O)N(C)[C@H]2C[C@H]3c4[nH]c5ccc(-c6ccc7c(c6)OCO7)cc5c4CCN3C[C@H]2[C@H](C)O)cc1`, the values for the IC50 with TAG (mean of runs), with TAG (run 1) and in the experiment with TAG (run 2) were 7.49 µM, 8.2 µM and 6.77 µM, respectively. Moreover, the IC50 cytotoxicity (DAPI nuclear signal decrease) with DAPI (mean of runs) was > 25 µM (inactive); in the experiment on DAPI (run 1), over 25 µM; in the experiment on DAPI (run 2) it was over 25 µM.
Regarding `COc1ccc(CC(N)c2csc(NC(=O)Nc3ccccc3C(C)C)n2)cc1` (stereo not drawn), the IC50 was > 25 µM (inactive) with TAG (mean of runs), over 25 µM in the experiment on TAG (run 1) and over 25 µM in the experiment with TAG (run 2). The IC50 cytotoxicity (DAPI nuclear signal decrease) with DAPI (mean of runs) is 21.5 µM (inactive); with DAPI (run 1), 20.3 µM; with DAPI (run 2), 22.7 µM.
On to `S=C(N/N=C/c1cccs1)NC1CC2CCC1C2` (stereo not drawn), for which the figures for the 50% inhibitory concentration (IC50) in the experiment on TAG (mean of runs), in the experiment on TAG (run 1) and with TAG (run 2) were 8.53 µM, 4.71 µM and 12.3 µM, respectively. Besides, the IC50 cytotoxicity (DAPI nuclear signal decrease) was > 25 µM (inactive) in the experiment on DAPI (mean of runs), over 25 µM with DAPI (run 1) and over 25 µM in the experiment on DAPI (run 2).
`COc1ccc2nc3cc([N+](=O)[O-])ccc3c(NNc3ccc([N+](=O)[O-])cc3)c2c1`: the half-maximal inhibitory concentration (IC50) in the experiment on TAG (mean of runs) is 5.93 µM; in the experiment on TAG (run 1), 10.4 µM; with TAG (run 2), 1.44 µM. Also, the values for the IC50 cytotoxicity (DAPI nuclear signal decrease) with DAPI (mean of runs), with DAPI (run 1) and in the experiment on DAPI (run 2) were > 25 µM (inactive), over 25 µM and over 25 µM, respectively.
Consider `COCCN1Cc2cccc(C(=O)Nc3cccc(-c4nc5ccccc5[nH]4)c3)c2C1=O`, for which the values for the IC50 in the experiment with TAG (mean of runs), in the experiment on TAG (run 1) and in the experiment on TAG (run 2) were 1.96 µM, 1.26 µM and 2.66 µM, respectively. In addition, the IC50 cytotoxicity (DAPI nuclear signal decrease) in the experiment on DAPI (run 1) and with DAPI (run 2) was over 25 µM each time.
For the compound `CC(=O)Nc1ccc(-c2ccnc3c2CC(C(=O)NCc2cccc(Cl)c2)O3)cc1` (stereo not drawn), the half-maximal inhibitory concentration (IC50) with TAG (mean of runs) was 13.3 µM; in the experiment with TAG (run 1), 15.9 µM; in the experiment with TAG (run 2), 10.7 µM. In addition, the IC50 cytotoxicity (DAPI nuclear signal decrease) is > 25 µM (inactive) with DAPI (mean of runs), over 25 µM in the experiment with DAPI (run 1) and over 25 µM in the experiment on DAPI (run 2).

For the origin of these results see PubChem BioAssay AID651630 (Sanford-Burnham Center for Chemical Genomics, 2012).
